Data: patent US20220233566A1, “NOVEL CARBONATE COMPOUND HAVING PYRROLOPYRIMIDINE SKELETON OR PHARMACEUTICALLY ACCEPTABLE SALT THEREOF” (TAIHO PHARMACEUTICAL CO., LTD., priority 2019, published 2022)

Assays:
[1] = Presence of prodrug in mouse and absorbency (plasma AUC after oral administration); type: in vivo; details: male, Balb/cA, mouse, 17 umol/kg, mice, 17 μmol/kg, administered compound itself in plasma, read-out: AUC0-6hr
Experimental: The dosage amounts of the compounds of Comparative Examples 1 to 5 and Examples 1 to 26 are those (mole/10 mL/kg) shown in Tables. Solutions for administration were prepared with an 0.5% aqueous solutions of HPMC so as to satisfy the dosage amounts.
Note that, the “amount of mole/10 mL/kg” means as follows: for example “10 mmol/10 mL/kg” means that 10 mmol of a test compound per body-weight (1 kg) of a mouse was dispersed or dissolved in a solution (10 mL) for administration. The same applies hereinafter.
The solutions for administration prepared above were orally administered to mice (Balb/cA, male) not fasted each by use of an oral administration sonde.
The mice were anesthetized with isoflurane 0.5, 1, 2, 4 and 6 hours after administration and blood was taken from the facial vein by use of a specific needle (animal lancet) and a heparin-coated hematocrit tube.
The blood sampled was immediately centrifuged (13000 rpm, 2 minutes, 4° C.) to prepare the plasma samples. After proteins were removed from the plasma samples, the concentrations of the test compound in the plasma samples were measured by LC/MS/MS.
The value of “area under the curve” (AUC) of drug concentration in blood versus time was calculated using analysis software such as Phoenix (registered trademark) WinNonlin (registered trademark).
In Table 3, “Comparative Example 1” and “Comparative Example 2” represent the “compound (Br form) of Comparative Example 1” and the “compound (I form) of Comparative Example 2”, respectively. In Table 4, “Comparative Example 6” represents the “compound (C1 form) of Comparative Example 6”.

[2] = Growth suppression activity in human tumor cell line; type: cell-based; details: 72 h; Human prostate cancer, DUI45, 3 days
Experimental: (§1) Human tumor cell lines different in type were suspended in mediums, seeded in individual wells of a multi-well plate and cultured. On the day after initiation of culture, serially diluted solutions of a compound were added. Culture was carried out for further 3 days. Cells were counted by a CellTiter-Glo (manufactured by Promega KK) in accordance with the protocol recommended by Promega KK. Cell viability was calculated in accordance with the equation shown below and the concentration (IC50 (μM)) of the compound at which 50% of cell growth is inhibited was obtained.
(§2) T: Intensity of light emitted from a well containing a compound
(§3) C: Intensity of light emitted from a well containing no compound

786-0 = assay: as above; type: cell-based; details: 72 h; Human renal cancer, 786-0, 3 days
Experimental: as §1, §2, §3

BCP1 = assay: as above; type: cell-based; details: BCP-1, 72 h; Human hematopoietic organ tumor, BCP1, 3 days
Experimental: as §1, §2, §3

CAPAN2 = assay: as above; type: cell-based; details: Capan-2, 72 h; Human pancreatic cancer, CAPAN2, 3 days
Experimental: as §1, §2, §3

COL0792 = assay: as above; type: cell-based; details: 72 h; Human skin cancer, COL0792, 3 days
Experimental: as §1, §2, §3

H1975 = assay: as above; type: cell-based; details: NCI-H1975, 72 h; Human lung cancer, H1975, 3 days
Experimental: as §1, §2, §3

H2126 = assay: as above; type: cell-based; details: NCI-H2126, 72 h; Human lung cancer, H2126, 3 days
Experimental: as §1, §2, §3

H226 = assay: as above; type: cell-based; details: NCI-H226, 72 h; Human lung cancer, H226, 3 days
Experimental: as §1, §2, §3

H441 = assay: as above; type: cell-based; details: NCI-H441, 72 h; Human lung cancer, H441, 3 days
Experimental: as §1, §2, §3

H526 = assay: as above; type: cell-based; details: NCI-H526, 72 h; Human lung cancer, H526, 3 days
Experimental: as §1, §2, §3

HCC1806 = assay: as above; type: cell-based; details: 72 h; Human breast cancer, HCC1806, 3 days
Experimental: as §1, §2, §3

HL60 = assay: as above; type: cell-based; details: HL-60, 72 h; Human hematopoietic organ tumor, HL60, 3 days
Experimental: as §1, §2, §3

HT1376 = assay: as above; type: cell-based; details: HT-1376, 72 h; human bladder cancer, HT1376, 3 days
Experimental: as §1, §2, §3

HT29 = assay: as above; type: cell-based; details: HT-29, 72 h; Human colorectal cancer, HT29, 3 days
Experimental: as §1, §2, §3

K562 = assay: as above; type: cell-based; details: 72 h; Human hematopoietic organ tumor, K562, 3 days
Experimental: as §1, §2, §3

MOLT4 = assay: as above; type: cell-based; details: MOLT-4, 72 h; Human hematopoietic organ tumor, MOLT4, 3 days
Experimental: as §1, §2, §3

RPMI8226 = assay: as above; type: cell-based; details: RPMI-8226, 72 h; Human hematopoietic organ tumor, RPMI8226, 3 days
Experimental: as §1, §2, §3

SW48 = assay: as above; type: cell-based; details: 72 h; Human colorectal cancer, SW48, 3 days
Experimental: as §1, §2, §3

SW620 = assay: as above; type: cell-based; details: SW-620, 72 h; Human colorectal cancer, SW620, 3 days
Experimental: as §1, §2, §3

A431 = assay: Growth suppression activity to human tumor cell line (Evaluation 2); type: cell-based; details: Human epidermoid carcinoma, A431, 3 days
Experimental: as §1, with “(nM))” for “(μM))”
as §2, §3

H1650 = assay: as above; type: cell-based; details: NCI-H1650, 72 h, Human lung cancer, H1650, 3 days
Experimental: as §1, with “(nM))” for “(μM))”
as §2, §3

H358 = assay: as above; type: cell-based; details: NCI-H358, 72 h, Human lung cancer, H358, 3 days
Experimental: as §1, with “(nM))” for “(μM))”
as §2, §3

RKO = assay: as above; type: cell-based; details: 72 h, Human colorectal cancer, 3 days
Experimental: as §1, with “(nM))” for “(μM))”
as §2, §3

AUC(0-t) [1]: 2.07 µM·h
IC50 [2]: 0.09 µM
IC50 (786-0): 0.22 µM
IC50 (BCP1): 0.11 µM
IC50 (CAPAN2): 0.05 µM
IC50 (COL0792): 0.89 µM
IC50 (H1975): 0.07 µM
IC50 (H2126): 0.11 µM
IC50 (H226): 0.13 µM
IC50 (H441): 0.14 µM
IC50 (H526): 0.17 µM
IC50 (HCC1806): 0.13 µM
IC50 (HL60): 0.3 µM
IC50 (HT1376): 0.06 µM
IC50 (HT29): 0.11 µM
IC50 (K562): 0.11 µM
IC50 (MOLT4): 0.06 µM
IC50 (RPMI8226): 0.34 µM
IC50 (SW48): 0.13 µM
IC50 (SW620): 0.23 µM
IC50 (A431; Homo sapiens, A-431, 72 h): 0.032 µM
IC50 (A431): 0.018 µM
IC50 (H1650): 0.008 µM
IC50 (H358): 0.052 µM
IC50 (RKO): 0.031 µM
SMILES: Nc1ncnc2c1c(Br)cn2[C@@H]1O[C@H](CO)[C@@H](O)[C@@H]1F [Comparative Example 1, (2R,3R,4S,5R)-5-(4-amino-5-bromo-7H-pyrrolo[2,3-d]pyrimidin-7-yl)-4-fluoro-2-(hydroxymethyl) tetrahydrofuran-3-ol]
